Where two headings read alike, the source gives them in different places.
Tests used:
[1] = WST-1 cytotoxicity assay on Jurkat cells (T-cell line); assay type: cell-based, human; details: human, Jurkat cells (T-cell line), mean of 4 independent measures, read-out: Cytotoxicity, WST-1 Jurkat IC 50 (µM) Mean
VEGFR2 = VEGFR2 (Homo sapiens, UniProt P35968); test: Kinase activity test (ReactionBiology), % enzyme activity relative to DMSO; assay type: biochemical; set-up: purchased ReactionBiology; details: VEGFR2;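 also: VEGFR2 was one member of a ten-kinase screening panel testing marketed FDA-approved drugs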
CK1d = target: T1, CK1d (Homo sapiens, UniProt P48730); test: as above; assay type: biochemical; details: CK1d
T1 construct: purchased ReactionBiology

[2] = system: human PBMCs (responder cells) with RPMI1788 stimulator cells; test: Mixed Lymphocyte Reaction (MLR, T cell assay), 3H-thymidine incorporation; assay type: cell-based; details: Homo sapiens, RPMI-1788; mean of 4 independent measures; read-out: T-cell efficacy, MLR IC 50 (µM) Mean
EPHB4 = target: T2, EPHB4 (Homo sapiens, UniProt P54760); test: Kinase activity test (ReactionBiology), % enzyme activity relative to DMSO; assay type: biochemical; details: EPHB4;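 also: EPHB4 was one of ten selected kinases in the screening panel, with enzyme activity expressed as a percentage of DMSO controls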
T2 construct: purchased ReactionBiology
T2 sequence (P54760 16-987): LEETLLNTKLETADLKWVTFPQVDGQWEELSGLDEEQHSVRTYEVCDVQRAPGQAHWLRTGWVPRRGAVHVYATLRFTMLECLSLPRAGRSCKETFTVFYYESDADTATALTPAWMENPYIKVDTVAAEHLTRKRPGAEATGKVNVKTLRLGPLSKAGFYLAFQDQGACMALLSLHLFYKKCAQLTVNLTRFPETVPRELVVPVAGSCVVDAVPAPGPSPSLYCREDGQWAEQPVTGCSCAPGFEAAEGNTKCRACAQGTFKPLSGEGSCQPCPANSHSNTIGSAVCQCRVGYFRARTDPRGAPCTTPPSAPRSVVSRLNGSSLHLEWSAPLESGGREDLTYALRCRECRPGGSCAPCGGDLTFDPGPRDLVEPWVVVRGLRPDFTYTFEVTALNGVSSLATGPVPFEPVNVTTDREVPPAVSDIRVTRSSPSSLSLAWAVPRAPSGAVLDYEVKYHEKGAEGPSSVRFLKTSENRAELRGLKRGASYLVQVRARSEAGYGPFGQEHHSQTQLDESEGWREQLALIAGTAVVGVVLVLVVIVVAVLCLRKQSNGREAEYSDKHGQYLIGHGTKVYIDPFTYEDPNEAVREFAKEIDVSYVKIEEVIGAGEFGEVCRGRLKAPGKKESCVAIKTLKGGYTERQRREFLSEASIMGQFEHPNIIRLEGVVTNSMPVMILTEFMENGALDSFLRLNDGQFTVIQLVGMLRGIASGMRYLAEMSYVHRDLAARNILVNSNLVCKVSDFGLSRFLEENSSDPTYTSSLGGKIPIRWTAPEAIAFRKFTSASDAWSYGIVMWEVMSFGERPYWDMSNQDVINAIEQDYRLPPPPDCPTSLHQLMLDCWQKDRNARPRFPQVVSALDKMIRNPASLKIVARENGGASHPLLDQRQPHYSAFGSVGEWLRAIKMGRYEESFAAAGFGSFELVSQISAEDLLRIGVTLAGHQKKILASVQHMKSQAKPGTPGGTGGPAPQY

[3] = WST-1 cytotoxicity assay on RPMI1788 cells (B-cell line); assay type: cell-based, human; details: human, RPMI1788 cells (B-cell line), mean of 4 independent measures, read-out: Cytotoxicity, WST-1 RPMI 1788 IC 50 (µM) Mean
Experimental: (§1) Compounds were prepared as 10 mM stock solutions in dimethylsulfoxide (DMSO)and were tested at 50-10-1-0.1-0.01 and 0.001 μM in the 4 assays.
The human B cell line RPMI1788 (American Type Culture Collection, USA) and the human T cell line Jurkat (European Collection of Cell Cultures, ECACC, England) were maintained in RPMI1640 culture medium (BioWhittaker®, Lonza, Verviers, Belgium) containing 10% foetal calf serum (FCS, HyClone® Thermo Scientific, United Kingdom) and 5 μg/mL gentamicin sulphate (BioWhittaker®, Lonza, Verviers, Belgium) at 37°C and 5% CO2.
WST-1 assays on RPMI-1788 cells and Jurkat cells were performed as follows: 20 μL of test compound dilution were added to each well containing exponential growing cells and the plates were incubated for 48 h at 37°C, 5% CO2. Untreated cells and positive control (1% triton X-100, for the last 15 min) served as reference for maximum and minimum viability. At the end of incubation 100 μL of supernatant were removed and replaced by 10 μL of WST-1 solution (Cell Proliferation Reagent WST-1, Roche Applied Science).

DAPK1 = target: T3, DAPK1 (Homo sapiens, UniProt P53355); test: Kinase activity test (ReactionBiology), % enzyme activity relative to DMSO; assay type: biochemical; details: DAPK1
T3 construct: purchased ReactionBiology

NEK2 = target: T4, NEK2 (Homo sapiens, UniProt P51955); test: as above; assay type: biochemical; details: NEK2;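 also: FDA-approved drugs chosen by structure-based repositioning, each screened at 10 or 1 µM for kinase activity, expressed as percent of DMSO controls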
T4 construct: purchased ReactionBiology
T4 sequence (P51955 1-445): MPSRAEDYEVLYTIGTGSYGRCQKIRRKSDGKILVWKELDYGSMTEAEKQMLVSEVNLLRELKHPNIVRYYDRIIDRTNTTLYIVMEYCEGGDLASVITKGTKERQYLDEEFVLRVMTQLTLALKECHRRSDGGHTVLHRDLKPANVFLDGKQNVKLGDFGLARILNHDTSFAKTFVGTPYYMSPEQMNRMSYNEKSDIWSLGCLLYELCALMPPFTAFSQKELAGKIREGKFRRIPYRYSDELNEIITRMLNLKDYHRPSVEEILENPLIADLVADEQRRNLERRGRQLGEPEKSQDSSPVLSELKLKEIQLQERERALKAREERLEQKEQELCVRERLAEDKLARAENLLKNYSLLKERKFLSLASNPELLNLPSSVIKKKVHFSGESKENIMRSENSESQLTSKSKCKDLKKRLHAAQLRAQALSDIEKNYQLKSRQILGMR

MAP2K2 = target: T5, MAP2K2 (Homo sapiens, UniProt P36507); test: as above; assay type: biochemical; details: MEK2
T5 construct: purchased ReactionBiology

human CD19+ B cells = test: B-cell assay: IgG production of ODN2006-stimulated primary B cells (AlphaLISA); assay type: cell-based; details: Homo sapiens, B-cell, 168 h; IgG production, ODN2006 0.1 μM, 7 days; mean of 4 independent experiments; read-out: B-cell IC50
Experimental: as §1
Blood samples of healthy volunteers were collected at the Red Cross of Mechelen, Belgium.
Highly purified naive peripheral human B cells were separated from fresh human PBMCs on magnetic columns by positive selection using CD19 magnetic beads according to the manufacturer’s instructions (MACS Miltenyi Biotech, Leiden, The Netherlands). […] Freshly isolated human CD19+ B cells were then plated at 25 000 cells per well in a 384-well plate (Perkin Elmer, Zaventem, Belgium) in 55 μL in DMEM medium containing 10% FCS and 5 μg/mL gentamicin sulphate. After 7 days of stimulation with 0.1 μM ODN2006 (InvivoGen, Toulouse, France), supernatant was taken for analysis of IgG using the AlphaLISA human IgG kit according to the manufacturer’s instructions (Perkin Elmer, Zaventem, Belgium).

[4] = Average, read-out: % Enzyme Activity (relative to DMSO controls), Average
[5] = replicate Data 1, read-out: % Enzyme Activity (relative to DMSO controls), Data 1
[6] = replicate Data 2, read-out: % Enzyme Activity (relative to DMSO controls), Data 2
[7] = 1 uM, Average, read-out: % Enzyme Activity (relative to DMSO controls), Average
[8] = 1 uM, replicate Data 1, read-out: % Enzyme Activity (relative to DMSO controls), Data 1
[9] = 1 uM, replicate Data 2, read-out: % Enzyme Activity (relative to DMSO controls), Data 2
[10] = 10 uM, Average, read-out: % Enzyme Activity (relative to DMSO controls), Average
[11] = 10 uM, replicate Data 1, read-out: % Enzyme Activity (relative to DMSO controls), Data 1
[12] = 10 uM, replicate Data 2, read-out: % Enzyme Activity (relative to DMSO controls), Data 2
[13] = compound 1μM, relative to DMSO controls, read-out: % Enzyme activity at 1μM
[14] = compound 10μM, relative to DMSO controls, read-out: % Enzyme activity at 10μM

Chain of VEGFR2 (P35968 20-1356): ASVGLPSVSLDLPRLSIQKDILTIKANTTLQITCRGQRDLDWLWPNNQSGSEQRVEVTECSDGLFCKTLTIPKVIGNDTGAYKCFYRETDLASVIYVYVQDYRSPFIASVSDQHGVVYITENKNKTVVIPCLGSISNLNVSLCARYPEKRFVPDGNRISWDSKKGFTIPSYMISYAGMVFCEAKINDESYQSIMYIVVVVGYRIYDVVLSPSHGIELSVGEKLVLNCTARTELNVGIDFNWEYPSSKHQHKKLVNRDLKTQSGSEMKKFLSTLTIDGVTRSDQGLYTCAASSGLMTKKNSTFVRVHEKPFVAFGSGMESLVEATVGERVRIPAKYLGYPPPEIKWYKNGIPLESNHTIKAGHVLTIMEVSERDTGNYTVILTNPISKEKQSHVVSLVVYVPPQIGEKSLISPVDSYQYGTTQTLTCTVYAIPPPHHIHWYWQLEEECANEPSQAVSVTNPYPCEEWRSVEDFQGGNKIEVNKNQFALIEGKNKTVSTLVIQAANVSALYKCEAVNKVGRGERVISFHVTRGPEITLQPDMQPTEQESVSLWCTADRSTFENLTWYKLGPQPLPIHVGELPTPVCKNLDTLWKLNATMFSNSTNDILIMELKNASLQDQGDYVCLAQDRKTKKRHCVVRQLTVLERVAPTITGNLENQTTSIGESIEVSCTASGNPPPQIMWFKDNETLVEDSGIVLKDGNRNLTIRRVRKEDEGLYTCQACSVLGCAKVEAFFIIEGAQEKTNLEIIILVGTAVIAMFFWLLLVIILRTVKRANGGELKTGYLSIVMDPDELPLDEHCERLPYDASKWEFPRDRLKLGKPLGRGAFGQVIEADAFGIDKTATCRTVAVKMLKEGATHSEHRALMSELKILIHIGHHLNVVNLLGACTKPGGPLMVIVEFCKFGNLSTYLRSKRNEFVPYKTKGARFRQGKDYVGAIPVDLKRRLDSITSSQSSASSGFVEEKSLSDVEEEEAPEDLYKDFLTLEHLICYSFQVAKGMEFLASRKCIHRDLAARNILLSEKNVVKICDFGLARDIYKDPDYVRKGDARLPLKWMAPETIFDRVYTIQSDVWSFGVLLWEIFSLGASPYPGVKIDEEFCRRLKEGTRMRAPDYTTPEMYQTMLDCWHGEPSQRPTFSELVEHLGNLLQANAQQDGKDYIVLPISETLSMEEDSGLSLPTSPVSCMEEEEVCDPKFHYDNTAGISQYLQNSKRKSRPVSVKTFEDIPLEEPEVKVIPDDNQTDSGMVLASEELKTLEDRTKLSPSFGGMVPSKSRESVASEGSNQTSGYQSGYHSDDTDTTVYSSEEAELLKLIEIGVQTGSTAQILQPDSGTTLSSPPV
T3 sequence (P53355 whole entry): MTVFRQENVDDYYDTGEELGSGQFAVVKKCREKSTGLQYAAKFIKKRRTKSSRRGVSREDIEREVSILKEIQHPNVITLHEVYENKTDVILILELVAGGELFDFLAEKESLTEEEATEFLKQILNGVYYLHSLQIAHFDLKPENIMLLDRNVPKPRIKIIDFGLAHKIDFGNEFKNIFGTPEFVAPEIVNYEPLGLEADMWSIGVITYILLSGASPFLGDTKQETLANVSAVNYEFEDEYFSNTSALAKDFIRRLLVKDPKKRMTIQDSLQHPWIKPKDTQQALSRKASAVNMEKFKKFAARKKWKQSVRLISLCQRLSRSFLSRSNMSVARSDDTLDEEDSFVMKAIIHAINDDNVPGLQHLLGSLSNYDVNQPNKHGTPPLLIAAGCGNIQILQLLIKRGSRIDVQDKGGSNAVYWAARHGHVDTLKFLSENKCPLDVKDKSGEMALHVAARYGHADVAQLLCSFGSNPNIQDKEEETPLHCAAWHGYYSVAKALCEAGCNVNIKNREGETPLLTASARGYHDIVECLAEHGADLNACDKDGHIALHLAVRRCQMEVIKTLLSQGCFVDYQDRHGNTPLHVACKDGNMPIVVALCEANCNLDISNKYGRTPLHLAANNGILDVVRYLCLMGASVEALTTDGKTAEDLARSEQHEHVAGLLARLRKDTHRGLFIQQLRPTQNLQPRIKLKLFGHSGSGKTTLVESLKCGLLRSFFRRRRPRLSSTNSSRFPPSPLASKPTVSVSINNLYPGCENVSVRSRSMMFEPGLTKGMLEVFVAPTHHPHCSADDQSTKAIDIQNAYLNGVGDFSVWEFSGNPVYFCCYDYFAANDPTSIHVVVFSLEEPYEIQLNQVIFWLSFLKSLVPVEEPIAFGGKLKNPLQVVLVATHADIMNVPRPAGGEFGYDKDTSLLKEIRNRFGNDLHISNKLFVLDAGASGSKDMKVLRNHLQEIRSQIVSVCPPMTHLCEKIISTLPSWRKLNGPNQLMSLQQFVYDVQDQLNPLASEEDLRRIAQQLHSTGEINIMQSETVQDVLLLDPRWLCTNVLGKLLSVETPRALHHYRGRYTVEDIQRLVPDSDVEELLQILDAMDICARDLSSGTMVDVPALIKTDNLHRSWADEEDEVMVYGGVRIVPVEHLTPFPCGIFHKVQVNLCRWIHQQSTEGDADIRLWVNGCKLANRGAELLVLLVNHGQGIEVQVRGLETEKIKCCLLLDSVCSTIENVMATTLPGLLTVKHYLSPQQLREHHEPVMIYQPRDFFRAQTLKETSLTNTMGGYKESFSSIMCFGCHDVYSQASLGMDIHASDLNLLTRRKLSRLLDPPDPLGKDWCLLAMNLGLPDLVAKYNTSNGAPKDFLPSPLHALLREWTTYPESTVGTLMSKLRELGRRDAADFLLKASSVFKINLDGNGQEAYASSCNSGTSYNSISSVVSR
T1 sequence (P48730 whole entry): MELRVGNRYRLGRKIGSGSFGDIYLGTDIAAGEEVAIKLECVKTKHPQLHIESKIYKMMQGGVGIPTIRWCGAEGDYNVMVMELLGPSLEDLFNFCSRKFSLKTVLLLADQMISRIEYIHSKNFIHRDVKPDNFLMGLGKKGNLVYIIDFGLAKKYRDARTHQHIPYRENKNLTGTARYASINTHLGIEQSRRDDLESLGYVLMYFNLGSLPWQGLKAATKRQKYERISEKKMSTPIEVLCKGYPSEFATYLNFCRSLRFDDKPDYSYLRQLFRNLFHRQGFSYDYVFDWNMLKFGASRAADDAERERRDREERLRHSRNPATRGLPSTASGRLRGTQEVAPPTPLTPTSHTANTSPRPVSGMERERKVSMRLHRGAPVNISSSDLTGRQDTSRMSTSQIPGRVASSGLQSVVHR
T5 sequence (P36507 whole entry): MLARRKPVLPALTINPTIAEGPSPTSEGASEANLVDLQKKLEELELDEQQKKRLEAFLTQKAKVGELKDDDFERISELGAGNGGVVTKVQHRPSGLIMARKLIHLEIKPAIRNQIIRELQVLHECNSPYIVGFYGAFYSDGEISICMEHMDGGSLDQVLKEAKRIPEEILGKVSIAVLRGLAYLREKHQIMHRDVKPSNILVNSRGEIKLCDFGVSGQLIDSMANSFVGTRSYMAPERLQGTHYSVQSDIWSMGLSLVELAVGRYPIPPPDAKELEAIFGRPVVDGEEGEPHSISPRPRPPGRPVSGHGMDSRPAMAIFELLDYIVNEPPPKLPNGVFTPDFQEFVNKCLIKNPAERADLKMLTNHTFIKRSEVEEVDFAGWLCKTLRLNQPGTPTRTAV

Nc1ncnc2c1ncn2[C@@H]1O[C@H](CO)[C@@H](O)[C@H]1O [Adenosine, reference compound]
IC50 at 48 h [1]: > 50 µM | remaining activity at 1 µM (VEGFR2; [4]): 111% | remaining activity at 1 µM (VEGFR2; [5]): 111% | remaining activity at 1 µM (VEGFR2; [6]): 111% | remaining activity at 10 µM (VEGFR2; [4]): 98.3% | remaining activity at 10 µM (VEGFR2; [5]): 98.4% | remaining activity at 10 µM (VEGFR2; [6]): 98.2% | remaining activity at 1 µM (CK1d; [7]): 87.7% | remaining activity at 1 µM (CK1d; [8]): 86.5% | remaining activity at 1 µM (CK1d; [9]): 88.9% | remaining activity at 10 µM (CK1d; [10]): 50.2% | remaining activity at 10 µM (CK1d; [11]): 51.1% | remaining activity at 10 µM (CK1d; [12]): 49.4% | remaining activity at 1 µM (CK1d; [13]): 87.7% | remaining activity at 10 µM (CK1d; [14]): 50.2% | IC50 [2]: > 50 µM | remaining activity at 1 µM (EPHB4; [4]): 101% | remaining activity at 1 µM (EPHB4; [5]): 100% | remaining activity at 1 µM (EPHB4; [6]): 102% | remaining activity at 10 µM (EPHB4; [4]): 85.4% | remaining activity at 10 µM (EPHB4; [5]): 84.1% | remaining activity at 10 µM (EPHB4; [6]): 86.8% | IC50 at 48 h [3]: > 50 µM | remaining activity at 1 µM (DAPK1; [4]): 99.3% | remaining activity at 1 µM (DAPK1; [5]): 103% | remaining activity at 1 µM (DAPK1; [6]): 95.9% | remaining activity at 10 µM (DAPK1; [4]): 81.1% | remaining activity at 10 µM (DAPK1; [5]): 80.8% | remaining activity at 10 µM (DAPK1; [6]): 81.4% | remaining activity at 1 µM (NEK2; [7]): 79.9% | remaining activity at 1 µM (NEK2; [8]): 73.6% | remaining activity at 1 µM (NEK2; [9]): 86.1% | remaining activity at 10 µM (NEK2; [10]): 71.7% | remaining activity at 10 µM (NEK2; [11]): 77.2% | remaining activity at 10 µM (NEK2; [12]): 66.2% | remaining activity at 1 µM (NEK2; [13]): 96.1% | remaining activity at 10 µM (NEK2; [14]): 59% | remaining activity at 1 µM (MAP2K2; [4]): 96.1% | remaining activity at 1 µM (MAP2K2; [5]): 96.6% | remaining activity at 1 µM (MAP2K2; [6]): 95.7% | remaining activity at 10 µM (MAP2K2; [4]): 59% | remaining activity at 10 µM (MAP2K2; [5]): 60.6% | remaining activity at 10 µM (MAP2K2; [6]): 57.4% | IC50 (human CD19+ B cells): > 50 µM
